From patent US6143774A, “Imidazole n-benzyldioxol derivatives, method for preparing same, resulting intermediates, pharmaceutical compositions and use of said derivatives as endothelin antagonists” (Hoechst Marion Roussel, priority 1995, dated 2000)

Legend:
[1] = tested on: endothelin (ET), isolated thoracic aorta of a rat; assay: Antagonistic activity of endothelin on the isolated aorta of a rat; parameters: species or system Wistar male rats
Protocol: The thoracic aorta is removed from Wistar male rats (approximately 350 g) (IFFA CREDO France) anaesthetized with pentobarbital (60 mg/kg IP) then exsanguinated. The aorta is rapidly put into a physiological solution at ambient temperature. A 1 to 2 mm ring without endothelium is put in an isolated organ bath containing 5 ml of the following physiological solution (composition in mM NaCl: 118.4; KCl: 4.7; MgSO4, 7H2 O: 1.2; CaCl2, 2H2 O: 2.5; KH2 PO4 : 1.2; NaHCO3 : 25; glucose: 10.1) the medium is maintained at 37° C. and oxygenated with a mixture of oxygen (95%) carbon dioxide (5%). The initial pressure imposed is 2 g, the rings are left at rest for 60 to 90 minutes. The reference contraction is caused by the addition of 2 successive concentrations of 3 μM of noradrenalin, left in contact for 15 minutes, followed by 3 washings, the second response serves as the reference contraction. After return to the base line, incubation is carried out for 15 minutes with a concentration of the product to be tested or the solvent then cumulative concentrations of endothelin are added every 5 minutes (concentrations of […]). The inhibition induced by the product is calculated as a % of the reduction relative to the reactivity of the control curves over 2 points: concentration of 10 and 30 nM of endothelin.

[2] = molecular target: T1, Endothelin A receptor (Rattus norvegicus, UniProt P26684); assay: Study of the affinity for the endothelin A receptor (125I endothelin displacement, rat heart ventricle membranes); type: binding; conditions: rat heart (ventricles) membranes, 25° C., 60 minutes
T1 construct: A membrane preparation is prepared from the heart (ventricles) of a rat; from tissue; host or cells: rat heart ventricles (membrane preparation)
T1 sequence (P26684 21-426): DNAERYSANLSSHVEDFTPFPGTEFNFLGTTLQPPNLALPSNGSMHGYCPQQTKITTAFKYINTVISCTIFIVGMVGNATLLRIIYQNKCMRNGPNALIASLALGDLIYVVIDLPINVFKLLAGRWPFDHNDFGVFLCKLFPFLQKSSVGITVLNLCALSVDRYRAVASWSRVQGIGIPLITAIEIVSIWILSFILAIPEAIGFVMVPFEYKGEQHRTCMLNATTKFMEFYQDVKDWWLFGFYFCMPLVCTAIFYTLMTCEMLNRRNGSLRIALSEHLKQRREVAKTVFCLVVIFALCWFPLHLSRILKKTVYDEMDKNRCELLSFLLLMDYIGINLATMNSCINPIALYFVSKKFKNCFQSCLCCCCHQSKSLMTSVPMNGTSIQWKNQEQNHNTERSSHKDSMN
Protocol: 1) Study of the Affinity for the Endothelin a Receptor
A membrane preparation is prepared from the heart (ventricles) of a rat. The tissue is ground up in a POLYTRON in a 50 mM Tris buffer pH=7.4.
(§1) After 30 minutes at 25° C. (W.B.) the homogenate is centrifuged at 30,000 g for 15 minutes (2 centrifugations with intermediate take-up in the Tris buffer pH 7.4).
(§2) The pellets are suspended in an incubation buffer (25 mM Tris, 5 microg/ml pepstatin A, 3 microg/ml aprotinin, 0.1 mM PMSF, 3 mM EDTA, 1 mM EGTA pH 7.4).
2 ml aliquoted fractions are distributed in hemolysis tubes and ^125 I endothelin (approx. 5,000 dpm/tube) and the product to be studied are added. (The product is first tested at […] three times). When the tested product displaces more than 50% of the radioactivity specifically bound to the receptor, it is tested again according to a range of 7 concentrations in order to determine the concentration which inhibits by 50% the radioactivity specifically bound to the receptor. In this way the 50% inhibitory concentration is determined.
(§3) The non-specific bond is determined by the addition of endothelin at 10^-6 M (three times). After incubation at 25° C. for 60 minutes, replacing in a water bath at 0° C. for 5 minutes, filtration under reduced pressure and rinsing with Tris buffer pH 7.4, the radioactivity is counted in the presence of scintillating Triton.
(§4) The result is expressed directly as the 50% inhibitory concentration (IC50), that is to say as the concentration of product studied, expressed in nM, necessary to displace 50% of the specific radioactivity fixed to the receptor studied.

[3] = tested on: endothelin (ET1); assay: Test for antagonistic activity of endothelin in the demedullated rat; type: in vivo, male Sprague Dawley rats
Protocol: 3) Test for Antagonistic Activity of Endothelin in the Demedullated Rat
Male Sprague Dawley rats (250 to 350 g) are anaesthetized (sodium pentobarbital 60 mg/kg injected by intraperitoneal route). The animal is placed under assisted respiration and a bilateral section of the vagus nerves is carried out. The rat is then demedullated.
The average arterial pressure is recorded with a heparin catheter (PE50) introduced into the carotid of the animal, and connected via a pressure sensor and an amplifier to a recorder (Gould, Pressure Processor). A catheter is introduced into the pudendal vein in order to allow injection of the molecules to be studied. After a stabilization period (about 15 minutes), the product or the solvent is injected 10 minutes before a range of increasing doses of endothelin which are injected every 2 minutes (0.1-0.3-1-3-10 μg/kg).
The anatagonistic activity of the products is estimated by the percentage inhibition in the increase in pressure induced by the endothelin at doses of 3 and 10 μg/kg.

[4] = tested on: endothelin (ET1); assay: Protection against sudden death induced by IV injection of endothelin (ET1) in a female mouse; type: in vivo
Protocol: 5) Protection Against Sudden Death Induced by IV Injection of Endothelin (ET1) in a Female Mouse
A lethal dose of ET1 (10 nmole/kg IV) is injected into female mice. The solvent or the molecules to be studied are injected 10 minutes before (i.v. route) or 30 minutes before (oral route) the endothelin.
The protection is calculated in the form of ED50 (50% effective dose, or the dose capable of reducing the mortality by 50% relative to the control group).

[5] = molecular target: T2, Endothelin B receptor (Rattus norvegicus, UniProt P21451); assay: Study of the affinity for the endothelin B receptor (125I endothelin displacement, rat cortex plus cerebellum membranes); type: binding; conditions: rat rear cortex plus cerebellum membranes, 25° C., 60 minutes
T2 construct: A membrane preparation is prepared from the rear cortex plus the cerebellum of a rat; from tissue; host or cells: rat rear cortex plus cerebellum (membrane preparation)
T2 sequence (P21451 27-442): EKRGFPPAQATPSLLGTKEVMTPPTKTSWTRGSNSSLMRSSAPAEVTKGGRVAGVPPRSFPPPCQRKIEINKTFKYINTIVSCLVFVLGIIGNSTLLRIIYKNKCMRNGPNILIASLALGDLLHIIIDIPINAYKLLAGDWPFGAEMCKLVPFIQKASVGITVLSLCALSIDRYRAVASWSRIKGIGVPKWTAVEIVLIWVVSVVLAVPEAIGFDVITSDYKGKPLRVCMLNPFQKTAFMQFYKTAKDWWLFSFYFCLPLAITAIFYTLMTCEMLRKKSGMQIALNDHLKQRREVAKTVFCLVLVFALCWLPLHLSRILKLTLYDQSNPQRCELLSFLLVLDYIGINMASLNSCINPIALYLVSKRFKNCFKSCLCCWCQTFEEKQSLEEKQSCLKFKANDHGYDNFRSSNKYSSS
Protocol: 2) Study of the Affinity for the Endothelin B Receptor
A membrane preparation is prepared from the rear cortex plus the cerebellum of a rat. The tissue is ground up in a POLYTRON in a 50 mM Tris buffer pH=7.4.
as §1, §2
2 ml aliquoted fractions are distributed in hemolysis tubes and ^125 I endothelin (approx. 5,000 dpm/tube) and the product to be studied are added. (The product is first tested at 3×10^-5 M three times). When the tested product displaces more than 50% of the radioactivity specifically bound to the receptor, it is tested again according to a range of 7 concentrations in order to determine the concentration which inhibits by 50% the radioactivity specifically bound to the receptor. In this way the 50% inhibitory concentration is determined.
as §3, §4

[6] = 10 min, IV, 10 minutes before ET1 10 nmole/kg IV
[7] = 0.5 h, PO, 30 minutes before ET1 10 nmole/kg IV

CCCCc1nc(SCCCCCC(=O)O)c(C(=O)O)n1Cc1cc2c(cc1Cl)OCO2 [Example 12, 2-butyl 4-((5-carboxypentyl)thio) 1-((6-chloro 1,3-benzodioxol-5-yl)methyl)-1H-imidazole-5-carboxylic acid]
% inhibition of contraction ([1]; antagonist 0.1 μM, ET 30 nM): 65%
% inhibition of contraction ([1]; antagonist 0.1 μM, ET 10 Nm): 88%
% inhibition of contraction ([1]; antagonist 1.0 μM, ET 30 nM): 98%
% inhibition of contraction ([1]; antagonist 1.0 μM, ET 10 Nm): 98%
IC50 [2]: 1.1 nM
% inhibition of vasoconstriction ([3]; dose 10.0 mg/kg, ET1 10 μg/kg): 35%
% inhibition of vasoconstriction ([3]; dose 10.0 mg/kg, ET1 (3 μg/kg)): 30%

CCCc1nc(SC2CCC(CC(=O)O)CC2)c(C(=O)O)n1Cc1cc2c(cc1Cl)OCO2 (centres unmarked) [Example 2, 4-((4-(carboxymethyl)cyclohexyl)thio)-1-((6-chloro-1,3-benzodioxol-5-yl)methyl)-2-propyl-1H-imidazole-5-carboxylic acid]
% inhibition of contraction ([1]; antagonist 0.1 μM, ET 30 nM): 61%
% inhibition of contraction ([1]; antagonist 0.1 μM, ET 10 Nm): 71%
% inhibition of contraction ([1]; antagonist 1.0 μM, ET 30 nM): 100%
% inhibition of contraction ([1]; antagonist 1.0 μM, ET 10 Nm): 94%
IC50 [2]: 1.1 nM
% inhibition of vasoconstriction ([3]; dose 0.3 mg/kg, ET1 10 μg/kg): 39%
% inhibition of vasoconstriction ([3]; dose 0.3 mg/kg, ET1 (3 μg/kg)): 56%
% inhibition of vasoconstriction ([3]; dose 1.0 mg/kg, ET1 10 μg/kg): 65%
% inhibition of vasoconstriction ([3]; dose 1.0 mg/kg, ET1 (3 μg/kg)): 60%
% inhibition of vasoconstriction ([3]; dose 3.0 mg/kg, ET1 10 μg/kg): 77%
% inhibition of vasoconstriction ([3]; dose 3.0 mg/kg, ET1 (3 μg/kg)): 63%
ED50 [4, 6]: 0.8 mg/kg
ED50 [4, 7]: 1.1 mg/kg
IC50 [5]: 194 nM

COCc1nc(SCCCCCC(=O)O)c(C(=O)O)n1Cc1cc2c(cc1Cl)OCO2 [Example 4]
% inhibition of vasoconstriction ([3]; dose 10.0 mg/kg, ET1 10 μg/kg): 38%
% inhibition of vasoconstriction ([3]; dose 10.0 mg/kg, ET1 (3 μg/kg)): 49%

O=C(O)CCCCCSc1nc(C2OCCO2)n(Cc2cc3c(cc2Cl)OCO3)c1C(=O)O [Example 3]
% inhibition of vasoconstriction ([3]; dose 1.0 mg/kg, ET1 10 μg/kg): 53%
% inhibition of vasoconstriction ([3]; dose 1.0 mg/kg, ET1 (3 μg/kg)): 52%
% inhibition of vasoconstriction ([3]; dose 3.0 mg/kg, ET1 10 μg/kg): 71%
% inhibition of vasoconstriction ([3]; dose 3.0 mg/kg, ET1 (3 μg/kg)): 64%
ED50 [4, 6]: 5 mg/kg
ED50 [4, 7]: 24.1 mg/kg

CCCc1nc(SCCCCC(=O)O)c(C(=O)O)n1Cc1cc2c(cc1Cl)OCO2 [Example 8, 4-((4-carboxybutyl)thio)-1-((6-chloro-1,3-benzodioxol-5-yl)methyl)-2-(propyl)-1H-imidazole-5-carboxylic acid]
% inhibition of contraction ([1]; antagonist 0.1 μM, ET 30 nM): 97%
% inhibition of contraction ([1]; antagonist 0.1 μM, ET 10 Nm): 97%
% inhibition of contraction ([1]; antagonist 1.0 μM, ET 30 nM): 96%
% inhibition of contraction ([1]; antagonist 1.0 μM, ET 10 Nm): 95%
IC50 [2]: 1.9 nM
% inhibition of vasoconstriction ([3]; dose 1.0 mg/kg, ET1 10 μg/kg): 22%
% inhibition of vasoconstriction ([3]; dose 1.0 mg/kg, ET1 (3 μg/kg)): 40%
% inhibition of vasoconstriction ([3]; dose 3.0 mg/kg, ET1 10 μg/kg): 47%
% inhibition of vasoconstriction ([3]; dose 3.0 mg/kg, ET1 (3 μg/kg)): 57%
ED50 [4, 6]: 3.5 mg/kg
IC50 [5]: 600 nM

CCCc1nc(SCCCCCC(=O)O)c(C(=O)O)n1Cc1cc2c(cc1Cl)OCO2 [Example 6]
% inhibition of contraction ([1]; antagonist 0.1 μM, ET 30 nM): 99%
% inhibition of contraction ([1]; antagonist 0.1 μM, ET 10 Nm): 96%
% inhibition of contraction ([1]; antagonist 1.0 μM, ET 30 nM): 98%
% inhibition of contraction ([1]; antagonist 1.0 μM, ET 10 Nm): 96%
IC50 [2]: 1.2 nM
% inhibition of vasoconstriction ([3]; dose 1.0 mg/kg, ET1 10 μg/kg): 33%
% inhibition of vasoconstriction ([3]; dose 1.0 mg/kg, ET1 (3 μg/kg)): 42%
% inhibition of vasoconstriction ([3]; dose 3.0 mg/kg, ET1 10 μg/kg): 37%
% inhibition of vasoconstriction ([3]; dose 3.0 mg/kg, ET1 (3 μg/kg)): 49%
ED50 [4, 6]: 3.9 mg/kg
IC50 [5]: 293 nM

CCCc1nc(SC2CCC(=CC(=O)O)CC2)c(C(=O)O)n1Cc1cc2c(cc1Cl)OCO2 (centres unmarked) [Example 10, 4-((4-(carboxymethylene)cyclohexyl)thio)-1-((6-chloro 1,3-benzodioxol-5-yl)methyl)-2-propyl-1H-imidazole-5-carboxylic acid]
IC50 [2]: 1.2 nM
% inhibition of vasoconstriction ([3]; dose 1.0 mg/kg, ET1 10 μg/kg): 39%
% inhibition of vasoconstriction ([3]; dose 1.0 mg/kg, ET1 (3 μg/kg)): 59%
% inhibition of vasoconstriction ([3]; dose 3.0 mg/kg, ET1 10 μg/kg): 61%
% inhibition of vasoconstriction ([3]; dose 3.0 mg/kg, ET1 (3 μg/kg)): 58%
ED50 [4, 6]: 3.3 mg/kg
ED50 [4, 7]: 3.2 mg/kg
IC50 [5]: 210 nM
